Measured values reported in PMC8536682, “NPF activates a specific NPF receptor and regulates food intake in Pacific abalone Haliotis discus hannai” (Scientific Reports, 2021).
No end group written: not given here.

What was measured:
Hdh-NPFR [1] = assay: Ca2+ mobilization (aequorin luminescence) assay in Hdh-NPFR-transfected CHO-K1 cells; type: cell-based, Haliotis discus hannai; conditions: Fig. 3g, Fig. S7b
Method: CHO-K1 cells were maintained in DMEM-F12 Nutrient Mixture Ham supplemented with 10% FBS (Welgene) at 37 °C in 5% CO2. Cells grown in a monolayer to 60% confluency in 100 mm dishes (1.5 × 10^6 cells) were transiently transfected with plasmids using FuGENE6 transfection reagent (Promega), according to the manufacturer’s recommendations. In brief, the transfection medium was prepared by combining 600 μl of DMEM-F12 with 2 μg of pcDNA3-HA-Hdh-NPFR plasmid together with 2 μg of a Ca^2+ reporter aequorin plasmid with or without the promiscuous Gα15 expression plasmid (kind gifts from Dr. Young-Joon Kim, Gwangju Institute of Science and Technology, Gwangju, Korea) with 18 μl of FuGENE6 in a 5 ml polystyrene tube and incubated for 25 min at room temperature. The transfection mixture was added to CHO-K1 cells in 10 ml of fresh FBS-free medium and the cells were incubated at 37 °C in 5% CO2 overnight. On the day of the assay, the cells were detached from the culture dish by incubating with 3 ml of 5 mM EDTA in phosphate-buffered saline (PBS, pH 7.2; Thermo Fisher Scientific, Waltham, MA, USA) for 5 min. The cells were washed in 10 ml of phenol red-free DMEM/F-12 with 0.1% bovine serum albumin (BSA) and 1% P/S (DMEM-prf), and collected by brief centrifugation. Probenecid (1.25 mM final concentration, Invitrogen) and coelenterazine (5 μM, Gold Biotech., St. Louis, MO, USA) were added to resuspended CHO-K1 cells in 5 ml of DMEM-prf medium and the cells were gently agitated for 2.5 h using a magnetic stirrer at room temperature shielded from light. The cell suspension was diluted four times with DMEM-prf and incubated for a further 30 min. Just before the Ca^2+ mobilization assay, peptide solutions were prepared in DMEM-prf and 50 μl aliquots were dispensed into 3 or 4 wells/peptide on 96-well microplates. DMEM-prf was used as a negative control. While stirring gently, 50 μl of the cell suspension was injected into a luminescence microplate reader (Berthold Tech.) using an automated injector unit. Luminescence was recorded for 20 s and for a further 10 s after injection of DMEM-prf including 0.2% Triton X-100 to measure the total Ca^2+ response. The average luminescence from multiple replicate wells for a single concentration was calculated and normalized to the largest receptor response after subtraction of background values obtained from negative controls. Dose–response curves and EC50 values were obtained using Sigma Plot v.13 (Systat Software, Inc., San Jose, CA, USA).

Hdh-NPFR [2] = assay: Western blot of ERK1/2 phosphorylation in Hdh-NPFR-expressing HEK293 cells; type: cell-based, Haliotis discus hannai; conditions: inhibitor 10^–5 M pre-incubated 1 h, then Hdh-NPF (10^–8, 10^–6 M) 5 min; Fig. 3f
Method: HEK293 cells were seeded into 6-well plates (0.3 × 10^6 cells/well) and transfected with 3 μg of pcDNA3-HA-Hdh-NPFR or pcDNA3 as described for the reporter assays. At 36 h post-transfection, the transfected cells were treated with Hdh-NPF (10^–9–10^–7 M), TPA (10^–7 M), or the same volume of peptide-free medium as a vehicle for 10 min. After washing twice with PBS, the cells were lysed with RIPA buffer [150 mM NaCl, 1% Triton X-100, 0.5% sodium deoxycholate, 0.1% sodium dodecyl sulfate (SDS), 50 mM Tris–Cl, pH 8.0] including protease inhibitor cocktail and PhosSTOP (Roche, Basel, Switzerland) according to the manufacturer’s recommendation. To examine signaling pathways, Hdh-NPFR-transfected cells were pre-incubated with serum-free DMEM for 6 h at 37 °C and exposed to a PKA inhibitor (H89, 10^–5 M; Sigma-Aldrich) or PKC inhibitor (Gӧ6983, 10^–5 M; Sigma-Aldrich) for a further 60 min. After replacing the medium with fresh serum-free DMEM, the cells were exposed to Hdh-NPF peptide (10^–8, 10^–6 M) for 5 min at 37 °C. The cell lysates were separated by 10% SDS–polyacrylamide gel electrophoresis and subsequently transferred to nitrocellulose membranes (Pall, Ann Arbor, MI, USA). […] The reactive bands were monitored using C-Digit 3600 Bolt Scanner (LI-COR, Lincoln, NE, USA).

[3] = test system: pcDNA3-transfected HEK293 cells; assay: CRE-Luc luciferase reporter assay in pcDNA3-transfected HEK293 cells; type: cell-based, human; conditions: pcDNA3-transfected HEK293 cells (no receptor); Fig. 3d
Method: HEK293 cells were cultured in Dulbecco’s modified Eagle medium (DMEM; Gibco, Loughborough, UK) containing 1% penicillin/streptomycin (P/S; Invitrogen) and 10% fetal bovine serum (FBS; Hyclone, GE Healthcare, Chicago, IL, USA). Sixteen hours before transfection, cultured HEK293 cells were seeded into 24-well plates (5 × 10^4 cells/well). The cells were transfected with a luciferase reporter plasmid of CRE-Luc[68] or SRE-Luc[69] using a polyethyleneimine transfection reagent (Sigma-Aldrich, St. Louis, MO, USA), along with pcDNA3-HA plasmids containing Hdh-NPFR-related receptors, human NPYR1 and NPYR2 (kindly provided by Dr. Annette G. Beck-Sickinger, Leipzig University, Germany), and a pRSV-β-galactosidase expression plasmid as an internal control (100 ng of each plasmid/well) as previously reported. After 3 h of transfection, the culture medium was replaced by new DMEM with 1% P/S and 10% FBS, and the HEK293 cells were further cultured for 30 h and then maintained in DMEM without FBS for 16 h. […] The cells were lysed with a luciferase cell culture lysis buffer (Promega, Madison, WI, USA) and luciferase activities were analyzed using a microplate-luminometer (Berthold Tech., Bad Wildbad, Germany) and normalized by the β-galactosidase values detected by an absorbance microplate reader (Tecan, Mannedorf, Switzerland) at 405 nm.

YAIVGRPRF-NH2 [Hdh-NPF-C9, truncated Hdh-NPF peptide]
Ca2+ mobilization response (Hdh-NPFR [1]): could not induce

COc1ccc2c(c1)c(C1=C(c3c[nH]c4ccccc34)C(=O)NC1=O)cn2CCCN(C)C [Gӧ6983]
Effect of inhibitor on Hdh-NPFR-mediated activation of ERK1/2 (Hdh-NPFR [2]): abolished

YPSKPDNPGEDAPAEQLRQYLKALNEYYAIVGRPRF-NH2 [NPY-F, chimeric mixed peptide for Hdh-NPF and human NPY]
Ca2+ mobilization response (Hdh-NPFR [1]): could not activate

QDAMLAPPDRPSEFRSPD-NH2 [Hdh-NPF-N18, truncated Hdh-NPF peptide]
Ca2+ mobilization response (Hdh-NPFR [1]): could not induce

QDAMLAPPDRPSEFRSPDQLRQYLKALNEYYAIVGRPRF-NH2 [Hdh-NPF]
EC50 [3]: 596 nM

QLRQYLKALNEYYAIVGRPRF-NH2 [Hdh-NPF-C21, truncated Hdh-NPF peptide]
Ca2+ mobilization response (Hdh-NPFR [1]): could not induce
